“And” between values parts separate entries of the source, which are not always exact repeats. Equal values may be shown once.
Test: molar heat capacity at saturation pressure
Conditions: Small (less than 1 g) adiabatic calorimetry

ON=C1CCCCC1 [cyclohexanone oxime]
Conditions | molar heat capacity
224.01 K, Crystal 3 | 136.62 J/K/mol
224.62 K, Crystal 3 | 137.24 J/K/mol
224.76 K, Crystal 3 | 137.52 J/K/mol
225.92 K, Crystal 3 | 138.42 J/K/mol
226.48 K, Crystal 3 | 138.92 J/K/mol
226.5 K, Crystal 3 | 139.12 J/K/mol
227.85 K, Crystal 3 | 140.09 J/K/mol
228.24 K, Crystal 3 | 140.6 J/K/mol
228.33 K, Crystal 3 | 140.45 J/K/mol
229.78 K, Crystal 3 | 141.6 J/K/mol
229.98 K, Crystal 3 | 141.91 J/K/mol
230.18 K, Crystal 3 | 141.86 J/K/mol
231.71 K, Crystal 3 | 143.03 J/K/mol and 143.15 J/K/mol
232.03 K, Crystal 3 | 143.15 J/K/mol
233.43 K, Crystal 3 | 144.26 J/K/mol
233.64 K, Crystal 3 | 144.32 J/K/mol
233.87 K, Crystal 3 | 144.33 J/K/mol
235.14 K, Crystal 3 | 145.41 J/K/mol
235.57 K, Crystal 3 | 145.51 J/K/mol
235.71 K, Crystal 3 | 145.65 J/K/mol
236.85 K, Crystal 3 | 146.62 J/K/mol
237.5 K, Crystal 3 | 146.68 J/K/mol
237.54 K, Crystal 3 | 146.94 J/K/mol
238.56 K, Crystal 3 | 147.84 J/K/mol
239.36 K, Crystal 3 | 148.9 J/K/mol
239.43 K, Crystal 3 | 148.81 J/K/mol
239.79 K, Crystal 3 | 150.04 J/K/mol
241.18 K, Crystal 3 | 153.75 J/K/mol
241.36 K, Crystal 3 | 153.6 J/K/mol
241.48 K, Crystal 3 | 154.07 J/K/mol
242.99 K, Crystal 2 | 148.41 J/K/mol
243.3 K, Crystal 2 | 148.43 J/K/mol
243.42 K, Crystal 2 | 148.52 J/K/mol
244.82 K, Crystal 2 | 149.34 J/K/mol
245.25 K, Crystal 2 | 149.53 J/K/mol
245.37 K, Crystal 2 | 149.83 J/K/mol
246.66 K, Crystal 2 | 150.69 J/K/mol
247.07 K, Crystal 2 | 151.16 J/K/mol
247.18 K, Crystal 2 | 150.98 J/K/mol
248.48 K, Crystal 2 | 152.19 J/K/mol
248.78 K, Crystal 2 | 152.63 J/K/mol
250.29 K, Crystal 2 | 153.82 J/K/mol
250.48 K, Crystal 2 | 154.01 J/K/mol
252.11 K, Crystal 2 | 155.49 J/K/mol
252.36 K, Crystal 2 | 155.81 J/K/mol
253.91 K, Crystal 2 | 157.22 J/K/mol
254.12 K, Crystal 2 | 157.42 J/K/mol
255.71 K, Crystal 2 | 159 J/K/mol
255.8 K, Crystal 2 | 159.11 J/K/mol
257.47 K, Crystal 2 | 160.79 J/K/mol
257.5 K, Crystal 2 | 160.82 J/K/mol
259.14 K, Crystal 2 | 162.49 J/K/mol
259.28 K, Crystal 2 | 162.64 J/K/mol
260.8 K, Crystal 2 | 164.29 J/K/mol
261.05 K, Crystal 2 | 164.53 J/K/mol
262.46 K, Crystal 2 | 166.09 J/K/mol
262.82 K, Crystal 2 | 166.41 J/K/mol
264.11 K, Crystal 2 | 167.84 J/K/mol
264.58 K, Crystal 2 | 168.33 J/K/mol
265.75 K, Crystal 2 | 169.58 J/K/mol
266.34 K, Crystal 2 | 170.21 J/K/mol
267.39 K, Crystal 2 | 171.43 J/K/mol
268.08 K, Crystal 2 | 172.13 J/K/mol
269.02 K, Crystal 2 | 173.27 J/K/mol
269.82 K, Crystal 2 | 174.08 J/K/mol
270.64 K, Crystal 2 | 175.04 J/K/mol
271.56 K, Crystal 2 | 175.95 J/K/mol
272.26 K, Crystal 2 | 176.79 J/K/mol
273.28 K, Crystal 2 | 177.73 J/K/mol
273.87 K, Crystal 2 | 178.52 J/K/mol
275.02 K, Crystal 2 | 179.53 J/K/mol
275.47 K, Crystal 2 | 180.26 J/K/mol
276.74 K, Crystal 2 | 181.37 J/K/mol
277.08 K, Crystal 2 | 181.92 J/K/mol
278.45 K, Crystal 2 | 183.01 J/K/mol
278.67 K, Crystal 2 | 183.43 J/K/mol
280.15 K, Crystal 2 | 184.62 J/K/mol
280.26 K, Crystal 2 | 185.03 J/K/mol
281.85 K, Crystal 2 | 186.12 J/K/mol and 186.38 J/K/mol
283.43 K, Crystal 2 | 187.69 J/K/mol
283.54 K, Crystal 2 | 187.5 J/K/mol
285.01 K, Crystal 2 | 188.93 J/K/mol
285.24 K, Crystal 2 | 188.79 J/K/mol
286.58 K, Crystal 2 | 189.97 J/K/mol
286.93 K, Crystal 2 | 189.9 J/K/mol
288.15 K, Crystal 2 | 191 J/K/mol
288.61 K, Crystal 2 | 190.97 J/K/mol
289.72 K, Crystal 2 | 191.92 J/K/mol
290.29 K, Crystal 2 | 191.83 J/K/mol
291.28 K, Crystal 2 | 192.69 J/K/mol
291.97 K, Crystal 2 | 192.78 J/K/mol
292.14 K, Crystal 2 | 192.79 J/K/mol
292.85 K, Crystal 2 | 193.59 J/K/mol
293.65 K, Crystal 2 | 193.64 J/K/mol
293.7 K, Crystal 2 | 193.66 J/K/mol
294.41 K, Crystal 2 | 194.19 J/K/mol
295.26 K, Crystal 2 | 194.41 J/K/mol
295.32 K, Crystal 2 | 194.51 J/K/mol
295.97 K, Crystal 2 | 194.99 J/K/mol
296.81 K, Crystal 2 | 195.24 J/K/mol
297 K, Crystal 2 | 195.34 J/K/mol
297.53 K, Crystal 2 | 195.76 J/K/mol
298.36 K, Crystal 2 | 196.04 J/K/mol
298.66 K, Crystal 2 | 196.34 J/K/mol
299.09 K, Crystal 2 | 196.66 J/K/mol
299.91 K, Crystal 2 | 197.34 J/K/mol
300.33 K, Crystal 2 | 197.85 J/K/mol
300.64 K, Crystal 2 | 198.3 J/K/mol
301.45 K, Crystal 2 | 198.75 J/K/mol
301.99 K, Crystal 1 | 196.75 J/K/mol
302.19 K, Crystal 1 | 195.88 J/K/mol
